PMC9655874, “Analysis of Volatile Secondary Metabolites in Ocimum basilicum Cell Suspensions: Inhibition, In Silico Molecular Docking, and an ADMET Analysis against Proteolytic Enzymes of Rhynchophorus ferrugineus” (Plants, 2022)
Converted amounts (≈) assume the structure as drawn.

Assays:
[1] = system: trypsin proteinase of R. ferrugineus midgut; assay: Trypsin activity in midgut of treated larvae (in vivo); details: larvae treated 24 h, midgut preparation
Procedure: (§4) We used a serine protease assay buffer and a modified version of the fast microplate method to analyze the serine proteinase’s specific activity in mixtures (150 µL) [26]. […] The sample (10 µL) was diluted using an assay buffer to 50 µL to determine the presence of trypsin proteinase, chymotrypsin proteinase, and elastase. Assay buffer was used to dilute stock substrates of BAρNA (100 mg/mL DMSO), both SAAPFρNA and SAAPLρNA (100 mg/mL DMF), to 1.0 mg/mL. To halt the reaction after 15 min of incubation at 37 °C, 50 µL of acetic acid (30%, v/v) was added. The intensity of the activity was measured using a 405 nm ELISA plate reader. A denaturation enzyme was used in place of an active enzyme in the experiment mixture. For three substrates (SAAPLρNA, BAρNA, and SAAPFρNA), activity levels of certain proteinases were assessed as OD mg^−1 protein min^−1.
(§5) An experiment that was set up free of potential inhibitors served as a control. An ELISA plate fast reader measured the enzymes’ absorption at various wavelengths. For each inhibitor, the control enzyme’s percentage activity was assessed for each enzyme. Four instars midgut larvae were treated with previous concentrations of extracts or compounds, assessed as previously mentioned, to measure the protease activity in vivo. Larvae were subjected to extract- and compound-treated leaf discs for 24 h.

[2] = system: total proteases of R. ferrugineus midgut; assay: Total protease activity in midgut of treated larvae (in vivo); details: larvae treated 24 h, midgut preparation
Procedure: (§6) The homogenate of R. ferrugineus 4th midgut instar larvae (lab strain) was assayed for total proteolytic enzyme activity using azocasein, as Darrag et al. [26], with modifications. Ten 4th midgut larval homogenates were carefully removed, incised, and then rinsed in a solution containing 0.9% NaCl before even being homogenized in a buffer (500 µL) containing 5 mM dithiothreitol (DTT), 0.1% (v/v) Triton X-100, and 50 mM N-2-hydroxyethyl piperazine-N′-2-ethane sulphonic acid (HEPS), and 8.0 pH. It was spun in a centrifuge (Sigma 3k30), and the remaining homogenates were from a preliminary phase for 30 min at 5000 rpm. Using the supernatants, the protein concentration and proteolytic enzyme activity were determined. […] Before each reaction experiment, 40-day-old methanolic extract of cell suspension, pure chemicals, and 10 μL of enzyme specimens were incubated for 10 min. The addition of the substrate initiated the reaction, which was allowed for 20 min in the case of leupeptin before being terminated 180 min later by adding 300 µL of cold tri-chloroacetic acid (TCA) (10%, v/v). Twenty minutes were spent centrifuging the mixture at 5000 rpm (Sigma 3k30). Overall, 10 µL of NaOH (10 N) was added to the supernatant, and the absorbance was measured using an ELISA plate reader at 450 nm to quantify the enzymes’ specific activity as OD450/mg protein/h.
as §5

[3] = target: total proteases of R. ferrugineus midgut; assay: Total proteolytic enzyme activity of 4th instar midgut homogenate, azocasein (in vitro)
Procedure: as §6, §5

[4] = target: trypsin proteinase of R. ferrugineus midgut; assay: Serine proteinase specific activity, trypsin (in vitro); details: 4th instar midgut homogenate
Procedure: as §4, §5

[5] = system: cysteine protease of R. ferrugineus midgut; assay: Cysteine protease activity in midgut of treated larvae (in vivo); parameters: species or system Rhynchophorus ferrugineus; details: larvae treated 24 h, midgut preparation
Procedure: (§1) Utilizing the substrate N-benzoyl-Phe-Val-Arg-p-nitroanilide hydrochloride and certain modifications, the cysteine proteinases of R. ferrugineus homogenate from the fourth midgut instar was tested for activity. Ten larvae of the fourth midgut were carefully taken out, dissected, and periodically washed with 0.9% (w/v) NaCl solution, assay buffer containing 50 mM HEPS, 5 mM DTT, and 0.1% Triton X-100 (v/v) (pH 8.0, 500 µL) was used to homogenize the samples. The homogenates were spun using a cooling Sigma 3k30 centrifuge for 30 min at 5000 rpm. […] Before introducing 100 µL of the substrate, 10 µL of the supernatant was incubated in assay buffer (60 µL, pH = 8) at 37 °C for 30 min. Enzyme samples in 10 µL were incubated for 10 min with iodoacetic acid before the addition of the substrate. […] The absorbance at 520 nm was measured after spinning the reaction for 6 min at 5000 rpm. The activity in the midgut was assayed at OD520.60 min^−1 mg^−1 of protein with an ELISA rapid reader.

[6] = system: elastase of R. ferrugineus midgut; assay: Elastase activity in midgut of treated larvae (in vivo); parameters: species or system Rhynchophorus ferrugineus; details: larvae treated 24 h, midgut preparation
[7] = system: R. ferrugineus adults; assay: whole plant or invertebrate; format: in vivo; details: Rhynchophorus ferrugineus, read-out: LC50 (µg/mL) 95% CF
Procedure: (§2) Cells were suspended in the methanolic extract at serially increasing concentrations for 40 days. To dilute the compounds, TritonX-100 (0.1%) was added to acetone after the chemicals were dissolved. Adults or larvae of R. ferrugineus were purchased. They were then cultured using long lengths of sugar cane stem. The extracts’ anti-larvae action was assessed by applying topically to larvae and keeping them at 4–5 °C for 5 min. Utilizing a manually controlled micro-applicator, each larva had extract injected into its dorsum in three separate 10 µL doses using a 50-ll micro-syringe from Hertfordshire, UK’s Burkard Manufacturing Co., Ltd. (MS-N50; Shizuoka, Japan’s Ito Corp.). Five larvae in a box with three replications were fed on portions of long sugarcane stem measuring 10 cm. […] The sugarcane stem’s ten-centimeter-long portions cut into equal longitudinal halves were used to measure the antifeedant activity against adults. Long sections of sugarcane stem with a surface area of approximately 32.2 cm^2 were dried in air at room temperature, assuming a dipping time of 10 s and an initial serial concentration of (10 mL). Each treated object remained in a plastic container. Each box included an additional pair (male and female). Each therapy was administered ten times. In total, 24-, 48-, 72-, and 96-h feeding observations were assessed.
(§3) Statistics and probit analysis were performed using SPSS 25.0, as mentioned by Finney. To sum up, all numerical predictions of toxicity variables and findings were presented as the mean ± SE. We regressed mortality and translated the resulting dosage to an LC50 value (µg/mL). […] Enzyme activity data were analyzed using an ANOVA. Means were separated using the SNK (Student–Newman–Keuls) test, and deviations at the p ˂ 0.05 level were considered noteworthy.

[8] = target: cysteine protease of R. ferrugineus midgut; assay: Cysteine proteinase activity (in vitro); format: biochemical, Rhynchophorus ferrugineus; details: 4th instar midgut homogenate
Procedure: as §1

[9] = target: elastase of R. ferrugineus midgut; assay: Serine proteinase specific activity, elastase (in vitro); format: biochemical, Rhynchophorus ferrugineus; details: 4th instar midgut homogenate
[10] = system: R. ferrugineus 4th larvae; assay: Topical application (contact insecticide) to fourth instar larvae; format: in vivo, Rhynchophorus ferrugineus
Procedure: as §2, §3

[11] = system: metalloprotease of R. ferrugineus midgut; assay: Metalloprotease activity in midgut of treated larvae (in vivo); details: larvae treated 24 h, midgut preparation
Procedure: (§7) The ten midgut larvae from the fourth stage were neatly eliminated, dissected, and repeatedly washed with 0.9% NaCl solution. A 500 µL protease test solution, including 50 mM HEPS, 0.1% Triton X-100, and 5 mM DTT (pH 8.0), was utilized to homogenize the midgut instar. The homogenates were then centrifuged employing a Sigma 3k30 (cooling centrifuge) at 5000 rpm for 30 min to evaluate the supernatant’s enzyme activity and protein content. Before introducing CEGR (125 µL, 2% (w/v)), each experiment’s supernatant (10 µL) was incubated in an assay buffer (60 µL) at 37 °C for 20 min (pH 8). During a 10 min incubation period without a substrate, 10 µL enzyme samples were tested (20 min. for EDTA, EGTA, 1.10, Phenanthroline). After 180 min at 37 °C, 300 µL of cold TCA, 10% (v/v), was used to terminate the reaction. For the next 20 min, the mixture was spun (5000 rpm, Sigma 3K30). The absorbance was measured at 450 nm after mixing the supernatant with hydroxide solution (10 µL, 10 N) using an ELISA reader. An enzyme-free assay combination was utilized as a blank, and particular activity was evaluated utilizing the OD493 mg^−1 protein min^−1 and an enzyme-free blank specimen.
as §5

[12] = target: metalloprotease of R. ferrugineus midgut; assay: Metalloproteinase specific activity, CEGR substrate (in vitro); details: 4th instar midgut homogenate
Procedure: as §7, §5

IC50 total proteases (in vitro) [3]: 281.7 µg/mL (≈ 1830 µM)
IC50 trypsin proteinase (in vitro) [4]: 168.4 µg/mL (≈ 1090 µM)
IC50 cysteine protease (in vitro) [8]: 287.3 µg/mL (≈ 1860 µM)
IC50 elastase (in vitro) [9]: 112.6 µg/mL (≈ 730 µM)
IC50 metalloprotease (in vitro) [12]: 543.5 µg/mL (≈ 3520 µM)
Compound: C=C(C)C1CCC(C)(O)CC1 (stereo not drawn) [β-terpineol]
IC50 trypsin proteinase (in vivo) [1]: 237.1 µg/mL (≈ 1540 µM)
IC50 total proteases (in vivo) [2]: 379.5 µg/mL (≈ 2460 µM)
IC50 cysteine protease (in vivo) [5]: 427.4 µg/mL (≈ 2770 µM)
IC50 elastase (in vivo) [6]: 239.4 µg/mL (≈ 1550 µM)
LC50 [7]: 3920 µg/mL (≈ 25400 µM)
LD50 (µg/Larvae) 95% CF ([10]; 4th larvae, topical, 95% confidence limits in brackets): 42.6 (39.7–44.3) µg/Larvae
LD50 ([10]; larvae, topical application): 42.6 µg/larva
IC50 metalloprotease (in vivo) [11]: 1175.2 µg/mL (≈ 7620 µM)
